The subject of this assay is Unhealthy Skin Signature. The conditions noted are these: normal human keratinocytes, various doses of zinc pyrithione, 6-24 hours.

As to zinc pyrithione, the “Linkage to Unhealthy Skin Signature gene expression pattern” value was “negative linkage”.

These data come from patent US9901584B2, “Methods of cosmetically treating skin conditions with a cosmetic personal cleansing composition” (The Procter & Gamble Company, priority 2015, dated 2018).
